Columns and labels:
[1] = system: brains, heart, liver, muscle, and DRG of the NHPs; assay: Maturation of TTM-001 and TTM-002 capsids, NGS enrichment in NHP tissues; format: in vivo; settings: relative to AAV9 control
In short: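 Variants carry mutations within and flanking the loop IV peptide insert: positions 450–466 were triplet-randomized, while positions 449–466 received low-frequency point mutations. The combined pool went into two NHPs, and each peptide was scored by NGS enrichment ratio against AAV9.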

brain = assay: Matured TTM-001 and TTM-002 variants, NGS enrichment in mouse brain; format: in vivo, mice; settings: relative to AAV9 control
[2] = NGS fold-enrichment of matured AAV capsid variants, NHP brain, RNA
[3] = NGS fold-enrichment, DRG of NHPs
[4] = NGS fold-enrichment, RNA, brain of NHPs
[5] = NGS fold-enrichment, heart of NHPs
[6] = NGS fold-enrichment, liver DNA of NHPs
[7] = NGS fold-enrichment, liver RNA of NHPs
[8] = NGS fold-enrichment, muscle of NHPs
[9] = NGS fold-enrichment, brain of mice
[10] = NGS fold-enrichment of RNA, NHP brain
[11] = NGS fold-enrichment, NHP liver DNA
[12] = NGS fold-enrichment, NHP liver RNA
[13] = NGS fold-enrichment, NHP muscle
[14] = NGS fold-enrichment, mouse brain

Sequence | Fold Enrichment relative to AAV9, Brain (NHP) [1, 2] | Fold Enrichment relative to AAV9, DRG (NHP) ([1]; NHP DRG) | Fold Enrichment relative to AAV9, Heart (NHP) ([1]; NHP heart) | Fold Enrichment relative to AAV9, Liver DNA (NHP) ([1]; NHP liver, DNA) | Fold Enrichment relative to AAV9, Liver RNA (NHP) ([1]; NHP liver, RNA) | Fold Enrichment relative to AAV9, Muscle (NHP) ([1]; NHP muscle) | Fold Enrichment relative to AAV9, Brain (Mouse) (brain; mouse brain) | Fold Enrichment relative to AAV9, DRG (NHP) [1, 3] | Fold Enrichment relative to AAV9, Brain (NHP) [1, 4] | Fold Enrichment relative to AAV9, Heart (NHP) [1, 5] | Fold Enrichment relative to AAV9, Liver DNA (NHP) [1, 6] | Fold Enrichment relative to AAV9, Liver RNA (NHP) [1, 7] | Fold Enrichment relative to AAV9, Muscle (NHP) [1, 8] | Fold Enrichment relative to AAV9, Brain (NHP) [1, 10] | Fold Enrichment relative to AAV9, DRG (NHP) ([1]; NGS fold-enrichment, NHP DRG) | Fold Enrichment relative to AAV9, Heart (NHP) ([1]; NGS fold-enrichment, NHP heart) | Fold Enrichment relative to AAV9, Liver DNA (NHP) [1, 11] | Fold Enrichment relative to AAV9, Liver RNA (NHP) [1, 12] | Fold Enrichment relative to AAV9, Muscle (NHP) [1, 13] | Fold Enrichment relative to AAV9, Brain (Mouse) (brain; [14]) | further results
KTWQNSGSPHSKAQNQQT | 55.245 fold | 0.000 fold | 0.000 fold | 0.265 fold | 0.111 fold | 0.000 fold | 114.258 fold |  |  |  |  |  |  |  |  |  |  |  |  |  | 
KTDRSSGSPHSKAQNQQT | 52.737 fold | 0.000 fold | 0.000 fold | 0.085 fold | 0.995 fold | 0.000 fold | 123.421 fold |  |  |  |  |  |  |  |  |  |  |  |  |  | 
KTANGSGSPHSKAQYQQT |  |  |  |  |  |  |  | 0.000 fold | 73.038 fold | 0.000 fold | 0.160 fold | 0.153 fold | 0.000 fold |  |  |  |  |  |  |  | Fold Enrichment relative to AAV9, Brain (Mouse) (brain; [9]): 139.451 fold
KTIDGSGSPHSKAQNQQH |  |  |  |  |  |  |  | 0.000 fold | 79.090 fold | 0.000 fold | 0.049 fold | 0.136 fold | 0.000 fold | 79.090 fold | 0.000 fold | 0.000 fold | 0.049 fold | 0.136 fold | 0.000 fold | 57.914 fold | Fold Enrichment relative to AAV9, Brain (Mouse) (brain; [9]): 57.914 fold
KTINGSGSPHSKVPNLQT | 57.046 fold | 0.000 fold | 0.029 fold | 0.082 fold | 0.459 fold | 0.000 fold | 50.474 fold |  |  |  |  |  |  |  |  |  |  |  |  |  | 
KTINGNGSPHSKAQNHQA |  |  |  |  |  |  |  |  |  |  |  |  |  | 88.274 fold | 0.000 fold | 0.024 fold | 0.041 fold | 0.000 fold | 0.000 fold | 36.754 fold | 
KTERSSGSPHSKAQNQQT |  |  |  |  |  |  |  | 0.000 fold | 74.853 fold | 0.071 fold | 0.056 fold | 1.036 fold | 0.000 fold |  |  |  |  |  |  |  | Fold Enrichment relative to AAV9, Brain (Mouse) (brain; [9]): 125.538 fold
EAINGSGSPHSKAQNQQT | 50.243 fold | 0.629 fold | 0.094 fold | 1.519 fold | 0.057 fold | 0.000 fold | 117.305 fold |  |  |  |  |  |  |  |  |  |  |  |  |  | 
KAVNGHDSPHKSVQNQQT |  |  |  |  |  |  |  |  |  |  |  |  |  | 81.051 fold | 0.448 fold | 0.051 fold | 0.091 fold | 0.665 fold | 0.000 fold | 11.288 fold | 
KTINGHDSPHKSGQLVIT |  |  |  |  |  |  |  |  |  |  |  |  |  | 76.781 fold | 0.089 fold | 0.064 fold | 0.475 fold | 0.338 fold | 0.000 fold | 11.323 fold | 

From US20260250318A1, “COMPOSITIONS AND METHODS FOR CROSSING THE BLOOD BRAIN BARRIER” (VOYAGER THERAPEUTICS, INC., priority 2022, published 2026)
